According to PubChem BioAssay (NCI):
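Where inhibition never reached the appropriate level, the endpoint shown equals the highest concentration tested. Otherwise, values were interpolated linearly from a five-concentration, 48-hour dose response in 96-well plates. At the GI50, growth is halved. TGI: concentration producing complete growth inhibition.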

Experiments:
Assay in all cases: inhibition of tumour cell growth, NCI panel, 48 h
SK-MEL-5 melanoma = system: SK-MEL-5 melanoma
SR leukemia = system: SR leukemia
SW-620 colon = system: SW-620 colon
OVCAR-8 ovarian = system: OVCAR-8 ovarian
SN12C renal = system: SN12C renal
HL-60(TB) leukemia = system: HL-60(TB) leukemia
MALME-3M melanoma = system: MALME-3M melanoma
MOLT-4 leukemia = system: MOLT-4 leukemia
UO-31 renal = system: UO-31 renal
MDA-MB-231 breast = system: MDA-MB-231 breast

SMILES | TGI (SK-MEL-5 melanoma) [µM] | TGI (SR leukemia) [µM] | TGI (SW-620 colon) [µM] | TGI (OVCAR-8 ovarian) [µM] | TGI (SN12C renal) [µM] | TGI (HL-60(TB) leukemia) [µM] | TGI (MALME-3M melanoma) [µM] | TGI (MOLT-4 leukemia) [µM] | TGI (UO-31 renal) [µM] | GI50 (SK-MEL-5 melanoma) [µM] | GI50 (SW-620 colon) [µM] | GI50 (OVCAR-8 ovarian) [µM] | GI50 (SN12C renal) [µM] | GI50 (MDA-MB-231 breast) [µM] | TGI (MDA-MB-231 breast) [µM] | GI50 (MALME-3M melanoma) [µM] | GI50 (MOLT-4 leukemia) [µM] | GI50 (UO-31 renal) [µM] | GI50 (SR leukemia) [µM] | GI50 (HL-60(TB) leukemia) [µM]
Cc1ccccc1C1=[N+]([O-])c2ccccc2C1=O | 30.9 | > 100 | 45.1 | 30.3 | 32.1 | 28.9 | 33.2 | 49.2 | 36.6 |  |  |  |  |  |  |  |  |  |  | 
Nc1nc2sc3ccccc3c(=O)n2n1 | > 100 | > 100 | > 100 | > 100 | > 100 | > 100 | > 100 | > 100 | > 100 |  |  |  |  |  |  |  |  |  |  | 
C#CCN(Cc1nc2cc(C(F)(F)F)ccc2nc1-c1ccccc1)c1ccc(OC(F)(F)F)cc1 | > 100 |  | > 100 | > 100 | > 100 |  | > 100 | > 100 | > 100 | 34 | 40.9 | 74.3 | 38.2 | 28.4 | > 100 | > 100 | 32.2 | 50.7 |  | 
Cc1oc2c(C)c3oc(=O)cc(C)c3cc2c1CNC(=O)[C@@H]1OCCOCCOCCOCCOCCOC1C(=O)O (some centres not stated) | > 100 | > 100 | > 100 | > 100 | > 100 | > 100 | > 100 | > 100 | > 100 |  |  |  |  |  |  |  |  |  |  | 
CCCCCCCC(=O)NCC(O)CNC(=O)CCCCCCC | > 100 | > 100 | > 100 | > 100 | > 100 | > 100 | > 100 | > 100 | > 100 |  |  |  |  |  |  |  |  |  |  | 
CCOC(=O)c1c(-c2ccccc2)oc(-c2ccccc2)c1C(=O)OCC | > 100 | > 100 | > 100 | > 100 | > 100 | > 100 | > 100 | > 100 | > 100 |  |  |  |  |  |  |  |  |  |  | 
CC[O-].CC[O-].O=C([CH-]C(=O)c1cccnc1)c1ccccc1.O=C([CH-]C(=O)c1cccnc1)c1ccccc1.[Ti+4] | > 100 | > 100 | > 100 | > 100 | > 100 | 85 | > 100 | > 100 | > 100 | > 100 | 96.8 | 26.2 | > 100 |  |  | > 100 | 13.6 | > 100 | 25.5 | 27.9
CN(C)CCN(C)CC1COC(C)(C)O1 (configuration not stated) | > 100 | > 100 | > 100 | > 100 | > 100 | > 100 | > 100 | > 100 | > 100 |  |  |  |  |  |  |  |  |  |  | 
CCC1C(=O)OCc2c1cc1n(c2=O)Cc2cc3ccccc3nc2-1 (configuration not stated) | 32.1 |  | > 100 | > 70.9 | > 100 | > 36.2 | > 100 | > 22 | 11.7 |  |  |  |  |  | > 100 |  |  |  |  | 
O=C(C=Nc1ccccc1C(=O)[O-])c1cccs1.O=C(C=Nc1ccccc1C(=O)[O-])c1cccs1.[Co+2] |  | > 100 | > 100 | > 100 | > 100 | > 100 | > 100 | > 100 | > 100 |  |  |  |  |  |  |  |  |  |  | 
COc1cc(C(=O)N2N=C(c3ccc(S(C)(=O)=O)cc3)CC2c2ccco2)cc(OC)c1OC (configuration not stated) | > 63.2 |  | > 100 | > 100 | > 100 | 4.47 | > 100 | > 100 | > 100 | 2.99 | 3.62 | 20.2 | 12.3 | 11.2 | > 100 | 5.01 | 3.08 | 7.23 |  | 1.41
COc1ccc2c(c1O)C13CCN(C)C(C2)C1CCC1(C3)OCCO1 (configuration not stated) | > 100 | > 100 | > 100 | > 100 | > 100 |  | > 100 | > 100 | > 100 |  |  |  |  |  | > 100 |  |  |  |  | 
[Cl][Sn]([Cl])([c]1ccccc1)[c]1ccccc1 | 26.9 | 25.7 | 10.2 | 27.8 | 28.2 | 31.1 | 8.01 | 36.9 | 33.5 | 12.2 | 3.02 | 14.4 | 14.9 |  |  | 2.68 | 5.25 | 19.4 | 3.93 | 4.03
Cc1cc(Cl)cc2c(N=Nc3ccccc3[N+](=O)[O-])c(O)[nH]c12 | > 100 | 82.3 | > 100 |  | > 100 | > 100 |  | > 100 | > 100 |  |  |  |  |  | > 100 |  |  |  |  | 
CCN(CC)CCCn1cnc2ncccc2c1=O | > 100 | > 100 | > 100 | > 100 | > 100 |  | > 100 |  | > 100 |  |  |  |  |  |  |  |  |  |  | 
Cc1noc2cccc(OCc3ccccc3)c12 | 41.5 | > 100 | > 100 | > 100 | > 100 | > 100 | > 100 | > 100 | > 100 |  |  |  |  |  |  |  |  |  |  | 
O=C1CC(c2cccc(O)c2)C2(C(=O)NC(=S)NC2=O)C(c2cccc(O)c2)C1 (configuration not stated) | > 100 |  | > 100 | > 100 | > 100 | > 100 | > 100 | > 100 | > 100 | > 100 | > 100 | > 100 | > 100 | > 100 | > 100 | > 100 | > 100 | > 100 |  | > 100
CCOC(=O)N1C2C=C(C)C(ON2C(=O)c2ccccc2)C2C(C)C(=O)N21 (configuration not stated) | > 100 | > 100 | > 100 | > 100 | > 100 | > 100 | > 100 | > 100 | > 100 |  |  |  |  |  |  |  |  |  |  | 
O=c1cc(-c2ccccc2)oc2cc(O)c(O)c(O)c12 | 45.3 |  | > 100 | > 100 | 26 | > 100 |  | > 100 | > 100 | 9.47 | 17.8 | 46.5 | 8.8 | 14.1 | 36.8 |  | 53.7 | 13.9 |  | 55.1
